Test results taken from publication PMC10054465, “Design, Synthesis, and Antiviral Activities of New Benzotriazole-Based Derivatives” (Pharmaceuticals, 2023).
Read-outs that look alike come from different tables or passages of the source.

Tests used:
[1] = system: BVDV; assay: microbe, parasite or virus in culture; assay type: cell-based; conditions: Bovine viral diarrhea virus isolates and strains, MDBK
[2] = Cytotoxicity in mock-infected MDBK cells (MTT); conditions: cattle (Bos taurus)
[3] = system: VSV; assay: microbe, parasite or virus in culture; assay type: cell-based; conditions: Vesicular stomatitis virus, Vero 76, read-out: VSV EC50
[4] = Cytotoxicity in mock-infected Vero-76 monolayers; conditions: African green monkey (Cercopithecus aethiops)
[5] = system: Reo-1; assay: microbe, parasite or virus in culture; assay type: cell-based, Reovirus type-1; conditions: Reovirus sp., BHK-21, read-out: Reo-1 EC50
[6] = system: Sb-1; assay: microbe, parasite or virus in culture; assay type: cell-based, human enterovirus C (poliovirus type-1); conditions: Enterovirus C, Vero 76, read-out: Sb-1 EC50
[7] = system: RSV; assay: microbe, parasite or virus in culture; assay type: cell-based; conditions: human respiratory syncytial virus, Vero 76, read-out: RSV EC50
[8] = Cytotoxicity in mock-infected BHK-21 monolayers (MTT); conditions: Syrian hamster (Mesocricetus auratus)
[9] = system: VV; assay: microbe, parasite or virus in culture; assay type: cell-based; conditions: Orthopoxvirus vaccinia, Vero 76, read-out: VV EC50
[10] = system: HSV-1; assay: microbe, parasite or virus in culture; assay type: cell-based, human herpesvirus 1; conditions: Human alphaherpesvirus 1, Vero 76, read-out: HSV-1 EC50
[11] = system: CVB5; assay: microbe, parasite or virus in culture; assay type: cell-based, human enterovirus B (coxsackievirus B5); conditions: for EC50: Enterovirus B, CVB5, Vero 76, read-out: CVB5 EC50
[12] = system: YFV; assay: microbe, parasite or virus in culture; assay type: cell-based; conditions: Yellow fever virus, BHK-21, read-out: YFV EC50
[13] = Vero-76 cell monolayers, mock-infected
[14] = BHK-21 cell monolayers, mock-infected

Row | SMILES | EC50 ([1]; read-out: BVDV EC50) [µM] | CC50 ([2]; mock-infected) [µM] | CC50 [4, 13] [µM] | EC50 [6] [µM] | melting point [°C] | EC50 [7] [µM] | CC50 [8, 14] [µM] | EC50 [10] [µM] | EC50 [11] [µM] | also measured
1 | NC(=O)c1ncn([C@@H]2O[C@H](CO)[C@@H](O)[C@H]2O)n1 [Ribav, ribavirin, reference compound] | 12 | 35 | – | – | – | – | – | – | – | EC50 ([1]; read-out: BVDV EC50, second value after slash): 18 µM; CC50 [2]: 52 µM
2 | CC(=O)Nc1ccc(Cn2nnc3ccccc32)cc1 [79c] | > 44 | 44 | 72 | > 72 | 187 to 189 | > 9 | 86 | > 72 | > 72 | EC50 [3]: > 72 µM; CC50 ([4]; Vero-76 cells): 9 µM; EC50 [5]: > 86 µM; EC50 [9]: > 72 µM; EC50 [12]: > 86 µM
3 | Nc1cccc(Cn2nnc3cc(Cl)c(Cl)cc32)c1 [6a] | > 100 | > 100 | > 100 | > 100 | 161 to 162 | > 100 | 57 | > 100 | 52 ± 3.6 | EC50 [3]: > 100 µM; EC50 [9]: 62.5 ± 16.2 µM
4 | Nc1ccc(Cn2nnc3c(F)cccc32)cc1 [12e] | – | – | – | – | 164 to 167 | – | – | – | 100 | –
5 | CCCCNC(=O)Nc1cccc(Cn2nc3cc(C)c(C)cc3n2)c1 [32b] | – | > 100 | > 100 | 85 | 288 to 289 | > 100 | > 100 | > 100 | > 100 | EC50 [3]: > 100 µM; EC50 [5]: > 100 µM; EC50 [9]: > 100 µM; EC50 [12]: > 100 µM
6 | CCCNC(=O)Nc1ccc(Cn2nnc3cc(C)c(C)cc32)cc1 [99b] | > 100 | > 100 | > 100 | > 100 | 190 to 192 | > 100 | > 100 | > 100 | 16 | EC50 [3]: > 100 µM; EC50 [5]: > 100 µM; EC50 [9]: > 100 µM; EC50 [12]: > 100 µM
7 | Cc1cc2nn(Cc3cccc(NC(=O)c4ccc(F)cc4)c3)nc2cc1C [25b] | > 100 | > 100 | > 100 | > 100 | 211 to 212 | > 100 | > 100 | > 100 | 47 ± 2.2 | EC50 [3]: > 100 µM; EC50 [5]: > 100 µM; EC50 [9]: > 100 µM; EC50 [12]: > 100 µM
8 | Nc1nc2c(ncn2COCCO)c(=O)[nH]1 [ACG, acycloguanosine, reference compound] | – | – | > 100 | – | – | – | – | 2.4 ± 0.6 | – | –
9 | Cc1cc2nn(Cc3ccc(N)cc3)nc2cc1C [11b] | > 100 | > 100 | > 100 | > 100 | 169 to 171 | > 100 | > 100 | > 100 | 6 | EC50 [3]: > 100 µM; EC50 [5]: > 100 µM; EC50 [9]: > 100 µM; EC50 [12]: > 100 µM
10 | COc1ccc(C(=O)Nc2ccc(Cn3nnc4ccccc43)cc2)cc1 [86c] | 3 | 87 | 85 | – | 172 to 174 | – | 95 | – | – | –
11 | Cc1cc2nnn(Cc3ccc(NC(=O)NC4CCCCC4)cc3)c2cc1C [100b] | > 100 | > 100 | > 100 | > 100 | 216 to 218 | > 100 | > 100 | > 100 | 50 | EC50 [3]: > 100 µM; EC50 [5]: > 100 µM; EC50 [12]: > 100 µM
12 | CCC(=O)Nc1cccc(Cn2nnc3cc(Cl)c(Cl)cc32)c1 [36a] | – | – | – | – | 145 to 146 | – | – | – | – | antiviral activity (in words) [11]: no antiviral activity
13 | C[C@@]1(O)[C@H](O)[C@@H](CO)O[C@H]1n1cnc2c(=O)[nH]c(N)nc21 [NM108, 2′-C-methyl-guanosine, reference compound] | 1.5 | > 100 | – | – | – | – | > 100 | – | – | EC50 [12]: 1 µM
14 | Cc1cc2nnn(Cc3ccc(N)cc3)c2cc1C [12b] | – | – | – | – | 184 to 186 | – | – | – | 100 | –
15 | CC(=O)Nc1cccc(Cn2nnc3cc(Cl)c(Cl)cc32)c1 [35a] | – | – | – | – | – | – | – | – | – | antiviral activity (in words) [11]: no antiviral activity
16 | COc1cc(C(=O)Nc2ccc(Cn3nnc4c(F)cccc43)cc2)cc(OC)c1OC [21e] | – | 72 | > 100 | > 100 | 177 to 179 | 20 ± 2 | 60 | > 100 | > 100 | EC50 [3]: > 100 µM; EC50 [9]: > 100 µM

Row | SMILES | EC50 ([1]; read-out: BVDV EC50) [µM] | CC50 ([2]; mock-infected) [µM] | CC50 [4, 13] [µM] | EC50 [6] [µM] | melting point [°C] | EC50 [7] [µM] | CC50 [8, 14] [µM] | EC50 [10] [µM] | EC50 [11] [µM] | also measured
17 | Cc1cc(CCCOc2c(C)cc(-c3noc(C(F)(F)F)n3)cc2C)on1 [Plec, pleconaril, reference compound] | – | – | 77 ± 6.8 | 2 ± 0.62 | – | – | – | – | 0.005 ± 0.002 | –
18 | C[C@@]1(O)[C@H](O)[C@@H](CO)O[C@H]1n1ccc(N)nc1=O [NM107, 2’-C-methylcytidine, reference compound] | – | – | – | – | – | – | > 100 | – | – | EC50 [5]: 6 ± 2.1 µM
19 | COc1cc(C(=O)Nc2cccc(Cn3nnc4cc(Cl)c(Cl)cc43)c2)cc(OC)c1OC [41a] | > 100 | > 100 | > 100 | > 100 | 142 to 144 | > 10.5 | > 100 | > 100 | 18.5 ± 2.1 | EC50 [3]: > 100 µM; CC50 ([4]; Vero-76 cells): 10.5 µM; EC50 [5]: > 7 µM; CC50 ([8]; BHK-21 cells): 7 µM; EC50 [9]: > 100 µM; EC50 [12]: > 100 µM
20 | Cc1cc2nnn(Cc3cccc(NC(=O)c4ccc(Br)cc4)c3)c2cc1C | – | – | – | – | 237 to 238 | – | – | – | – | –
21 | Cc1cc2nnn(Cc3cccc(NC(=O)NC4CCCC4)c3)c2cc1C | – | – | – | – | 290 to 292 | – | – | – | – | –
22 | CCCNC(=O)Nc1ccc(Cn2nnc3ccccc32)cc1 | – | – | – | – | 165 to 167 | – | – | – | – | –
23 | CCCCNC(=O)Nc1ccc(Cn2nnc3cc(F)c(F)cc32)cc1 | – | – | – | – | 193 to 194 | – | – | – | – | –
24 | O=C(Nc1cccc(Cn2nnc3cc(Cl)c(Cl)cc32)c1)c1ccc(F)cc1 | – | – | – | – | 184 to 186 | – | – | – | – | –
25 | Cc1cc2nnn(Cc3cccc(NC(=O)NC(C)(C)C)c3)c2cc1C | – | – | – | – | 189 to 191 | – | – | – | – | –
26 | Cc1cc2nnn(Cc3cccc(NC(=O)c4ccc(F)cc4)c3)c2cc1C | – | – | – | – | 143 to 147 | – | – | – | – | –
27 | O=c1cnn([C@@H]2O[C@H](CO)[C@@H](O)[C@H]2O)c(=O)[nH]1 [6az-ur, 6-azauridine, reference compound] | – | – | 9.3 ± 1.6 | – | – | 1.1 ± 0.4 | > 100 | – | – | EC50 [12]: 46 ± 2.5 µM
28 | CCCNC(=O)Nc1cccc(Cn2nc3cc(C)c(C)cc3n2)c1 | – | – | – | – | 204 to 206 | – | – | – | – | –
29 | O=C(Nc1ccc(Cn2nnc3ccccc32)cc1)NC1CCCCC1 | – | – | – | – | 141 to 143 | – | – | – | – | –
30 | CCNC(=O)Nc1ccc(Cn2nnc3cc(Cl)c(Cl)cc32)cc1 | – | – | – | – | 211 to 212 | – | – | – | – | –
31 | CCCNC(=O)Nc1cccc(Cn2nnc3cc(C)c(C)cc32)c1 | – | – | – | – | 189 to 191 | – | – | – | – | –
